Read-outs that look alike come from different tables or passages of the source. Marks after values point to notes of the source that are not given here.
Experiments:
Format in all cases: biochemical
β1 subunit of human cCP = molecular target: T1, β1 subunit of human cCP (Homo sapiens, UniProt P28072+Q99436); experiment: Inhibition of β1 activity (RA, IC50), Ac-nLPnLD-AMC; conditions: PA28α; for IC50: 30 min pre-incubation
T1 construct: purchased Boston Biochem, Inc., Cambridge, MA, USA
Protocol: (§1) Residual activity measurements were performed at 10 μM final concentrations in the assay buffer (0.01% SDS, 50 mM Tris-HCl, 0.5 mM EDTA, pH 7.4). Stock solutions of the compounds were prepared in DMSO. To 50 μL of each compound in buffer, 25 μL of 0.8 nM human iCP or human cCP (both from Boston Biochem, Inc., Cambridge, MA, USA) were added. After incubation at 37 °C for 30 min, the reaction was started by adding of 25 μL of 100 μM relevant fluorogenic substrate: acetyl-Nle-Pro-Nle-Asp-AMC (Ac-nLPnLD-AMC, (Bachem, Bubendorf, Switzerland)) for β1, acetyl-Pro-Ala-Leu-7-amino-4-methylcoumarin (Ac-PAL-AMC, (Boston Biochem, Inc., Cambridge, MA, USA)) for β1i, t-butyloxycarbonyl-Leu-Arg-Arg-7-amino-4-methylcoumarin (Boc-LRR-AMC, (Bachem, Bubendorf, Switzerland)) for β2 and β2i, succinyl-Leu-Leu-Val-Tyr-7-amino-4-methylcoumarin (Suc-LLVY-AMC) (Bachem, Bubendorf, Switzerland) for β5 and β5i. Reaction progress was recorded on BioTek Synergy HT microplate reader by monitoring fluorescence at 460 nm (λex = 360 nm) for 90 min at 37 °C. The initial linear ranges were used to calculate velocity and determine residual activity. In the case of evaluation of β1, βi, β2, and β2i activities, the assay buffer was modified by replacing SDS with the proteasomal activator PA28α (Boston Biochem, Inc., Cambridge, MA, USA).
(§2) Final assay mixtures contained 0.2 nM human iCP or 0.2 nM human cCP in assay buffer (0.01% SDS (or PA28α in cases of β1, β1i subunits), 50 mM Tris-HCl, 0.5 mM EDTA, pH 7.4). Inhibitors were dissolved in DMSO and added to the black 96-well plates for at least eight different concentrations (the final concentration of DMSO was not more than 1%). After 30 min of incubation at 37 °C, the reaction was started by adding the substrate Suc-LLVY-AMC (for β5 and β5i) or Ac-nLPnLD-AMC (for β1) or Ac-PAL-AMC (for β1i). Fluorescence was monitored at 460 nm (λex = 360 nm) for 90 min at 37 °C. The progress of the reactions was recorded and the initial linear ranges were used to calculate the velocity. IC50 values were calculated using GraphPadPrism (GraphPad Software, San Diego, CA, USA) and are means from at least three independent determinations.

β5i subunit of human iCP = molecular target: T2, β5i subunit of human iCP (Homo sapiens, UniProt P20618+P28062); experiment: Inhibition of β5i activity (RA at 10 µM, IC50, IC50 shift), Suc-LLVY-AMC; conditions: for Group efficiency (GE): ΔpIC50/ΔNheavy with compound 1 as reference
T2 construct: purchased Boston Biochem, Inc., Cambridge, MA, USA
Protocol: as §1
as §2, with “After 30 min of incubation at 37 °C, the reaction was started by adding the substrate Suc-LLVY-AMC (for β5 and β5i) or Ac-nLPnLD-AMC (for β1) or Ac-PAL-AMC (for β1i).” left out

β5 subunit of human cCP = molecular target: T3, β5 subunit of human cCP (Homo sapiens, UniProt P20618+P28074); experiment: Inhibition of β5 activity (RA, IC50), Suc-LLVY-AMC; conditions: 30 min pre-incubation, SDS
T3 construct: purchased Boston Biochem, Inc., Cambridge, MA, USA
Protocol: as §1, §2

human caspase-1 = molecular target: T4, human caspase-1 (Homo sapiens, UniProt P29466); experiment: Caspase-1 assay, Ac-YVAD-AMC; conditions: 30 min pre-incubation, read-out: Residual activity [%] ± SD, Caspase-1
T4 construct: purchased Sigma Aldrich, St. Louis, MO, USA C5482; host or cells: E. coli
T4 sequence (P29466 120-297 limits assumed): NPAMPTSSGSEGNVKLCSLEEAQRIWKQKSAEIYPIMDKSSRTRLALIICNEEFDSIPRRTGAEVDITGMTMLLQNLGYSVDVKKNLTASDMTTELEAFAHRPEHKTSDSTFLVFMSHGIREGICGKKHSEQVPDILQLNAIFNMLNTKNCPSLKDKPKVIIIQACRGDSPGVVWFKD
T4 sequence (P29466 317-404 limits assumed): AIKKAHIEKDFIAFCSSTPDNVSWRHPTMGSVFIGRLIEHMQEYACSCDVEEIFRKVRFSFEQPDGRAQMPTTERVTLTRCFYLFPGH
Protocol: The inhibitory activity of the compounds against caspase-1 was investigated by fluorimetric assay using Ac-YVAD-AMC (SCP0069-5 mg, Sigma Aldrich, St. Louis, MO, USA) as a substrate. Recombinant human caspase-1 (expressed in E. coli, C5482, batch: SLBX3303, Sigma Aldrich, St. Louis, MO, USA) was diluted with 1 mL of assay buffer (50 mM HEPES pH 7.4, 100 mM NaCl, 1 mM EDTA, 10% (v/v) glycerol, 0.1% CHAPS, 1 mM DTT), divided into 50 µL aliquots and stored at −80 °C.
Briefly, compounds were incubated at a concentration of 100 µM (or 1% (v/v) DMSO as a control) with caspase-1 (1:5 dilution of caspase-1 stock solution) in assay buffer without DTT (to exclude reaction of compounds with DTT) in a 384-well microplate at room temperature for 30 min. The reaction was started by adding the substrate Ac-YVAD-AMC (final concentration: 20 µM) and monitored at λex = 360/40 and λem = 460/40 (Synergy HT, BioTek Instruments, Inc., Santa Clara, CA, USA) for 1 h. The initial linear ranges were used to calculate the velocity and determine RAs. Z-Val-Ala-DL-Asp-fluoromethylketone (N-1510, Bachem, Bubendorf, Switzerland) was used as a positive control.

[1] = 30 min pre-incubation, SDS activator, read-out: IC50 (µM), β5i
[2] = 0 min pre-incubation (IC50 shift), read-out: IC50 (µM), β5i, without pre-incubation
[3] = 30 min pre-incubation, SDS activator

Row | Compound | β1 (RA [%]) (β1 subunit of human cCP; 10 µM, Table 3) | IC50 (β5i subunit of human iCP; [1]) | Group efficiency (GE) (β5i subunit of human iCP) | β5 (RA [%]) at 10 µM (β5 subunit of human cCP) | remaining activity at 10 µM (β1 subunit of human cCP; 10 µM, Table 3) | IC50 (β5i subunit of human iCP; [2]) | IC50 (µM), β5i (β5i subunit of human iCP; [3]) | IC50 (β5i subunit of human iCP; IC50 (µM), β5i, 60-min pre-incubation, 60 min pre-incubation (IC50 shift)) | remaining activity at 100 µM (human caspase-1) | IC50 (β5 subunit of human cCP) | IC50 (β1 subunit of human cCP)
1 | COc1cccc2oc(C#N)nc12 [Compound 6] | 82% | 11 ± 7 µM | 0.44 | 63% ^c | – | – | – | – | – | – | –
2 | N#Cc1nc2c(O)cccc2o1 [Compound 10] | – | 3.6 ± 2.8 µM | 1.36 | – | > 90% | 10 ± 1 µM | single digit micromolar | 0.5 ± 0.07 µM | 9 ± 3% | 30 ± 12 µM | –
3 | N#Cc1nc2cc(O)ccc2o1 [Compound 11] | – | 4.2 ± 2.5 µM | 1.30 | 53% ^c | > 90% | – | single digit micromolar | – | 0% | – | –
4 | N#Cc1nc2cccc(O)c2o1 [Compound 13] | – | 2.1 ± 1.2 µM | 1.60 | – | 76% | – | single digit micromolar | – | 5 ± 1% | 11 ± 9 µM | –
5 | CC(=O)Oc1cccc2oc(C#N)nc12 [Compound 14] | – | 19 ± 9 µM | 0.16 | 56% ^c | > 90% | – | single digit micromolar | – | 49 ± 5% | – | –
6 | CC(=O)Oc1ccc2oc(C#N)nc2c1 [Compound 15] | – | 7.4 ± 1.7 µM | 0.26 | 55% ^c | > 90% | – | – | – | 12 ± 2% | – | –
7 | C=Cc1nc(CC(=O)N[C@@H](CC(C)C)B2O[C@@H]3C[C@@H]4C[C@@H](C4(C)C)[C@]3(C)O2)cs1 [Compound 28] | – | 1.4 µM | – | – | – | – | – | – | > 50% | 8.2 µM | 4.8 ± 0.2 µM
8 | CC(C)C[C@H](NC(=O)CCn1c(C#N)nc2ccccc21)B1O[C@@H]2C[C@@H]3C[C@@H](C3(C)C)[C@]2(C)O1 [Compound 30] | – | 0.6 µM | – | – | – | 1.5 ± 0.3 µM | – | – | > 50% | 0.7 ± 0.1 µM | 0.4 µM
9 | CC(C)C[C@H](NC(=O)CCCn1c(C#N)nc2ccccc21)B1O[C@@H]2C[C@@H]3C[C@@H](C3(C)C)[C@]2(C)O1 [Compound 31] | – | 5.7 ± 0.9 µM | – | – | – | – | – | – | > 50% | 13 ± 4 µM | 8.4 ± 1.6 µM
10 | CC(C)C[C@H](NC(=O)CCn1c(C#N)nc2ccccc21)B(O)O [Compound 34] | – | 2.2 ± 0.6 µM | – | – | – | 5.1 µM | – | – | > 50% | 1.8 ± 0.4 µM | 3.2 ± 0.2 µM
11 | CC(C)C[C@H](NC(=O)CCCn1c(C#N)nc2ccccc21)B(O)O [Compound 35] | – | 7.9 ± 0.5 µM | – | – | – | – | – | – | > 50% | 16 ± 8 µM | 13 ± 2 µM
12 | CC(C)C[C@H](NC(=O)CCn1c(C#N)nc2cccc(Cl)c21)B1O[C@@H]2C[C@@H]3C[C@@H](C3(C)C)[C@]2(C)O1 [Compound 38] | – | 0.6 ± 0.1 µM | – | – | – | 6.4 ± 0.7 µM | – | – | > 50% | 2 ± 0.7 µM | 5 ± 0.1 µM
13 | CC(C)C[C@H](NC(=O)Cc1ccc2oc(C#N)nc2c1)B1O[C@@H]2C[C@@H]3C[C@@H](C3(C)C)[C@]2(C)O1 [Compound 39] | – | 3.1 ± 0.3 µM | – | – | – | 3.2 ± 0.4 µM | – | – | > 50% | 3.6 ± 1.1 µM | 2.9 ± 0.4 µM
14 | CC(C)C[C@H](NC(=O)Cc1ccc2oc(C#N)nc2c1)B(O)O [Compound 40] | – | 2.4 ± 1 µM | – | – | – | – | – | – | > 50% | 2 ± 0.7 µM | 3.7 ± 0.9 µM

From publication PMC8700061, “Fragment-Sized and Bidentate (Immuno)Proteasome Inhibitors Derived from Cysteine and Threonine Targeting Warheads” (Cells, 2021)
